Experiments:
[1] = tested on: bovine RPE-choroid complex; assay: Water transport across ex vivo bovine RPE-choroid complex in Ussing-type chamber; format: cell-based
Procedure: The effect of DPOFA was examined in an ex vivo bovine RPE-choroid complex model.
Ringer's solution contained 120 mM NaCl, 5 mM KCl, 23 mM NaHCO3, 1 mM MgCl2, 1.8 mM CaCl2, 2.0 mM taurine, and 10 mM glucose at pH 7.4. The osmolariy of the solution was 295±5 mOsM. The solution was placed in the cell culture incubator set at 37° C. with 5% CO2. The solution was kept in the incubator for at least 2 says before use. Glutathione at final concentration of 1 mM was added to solutions minutes before the use in water transport experiments.
To prepare 5.5 ml of the 108 mM DPOFA stock solution, 220 mg of DPOFA was weighted. Four milliliters of water was added to the drug followed by addition of 104 microliters of 5M NaCl solution. Small magnetic stirring bar was placed to the drug suspension followed by immersion of the pH electrode. Slow addition of 1N NaOH solution began with careful pH monitoring. NaOH was added until pH reached the 7.2-7.4 range at which point the drug was completely dissolved. pH electrode and magnetic stirring bar were removed, and the volume was adjusted to 5.5 ml. The stock was aliquoted and stored at −20° C. Working DPOFA dilutions were made in Ringer's solution or in PBS.
An Ussing-type chamber was used to assess water transport across tissues preparations. Three hours before the experiment two Ussing-like chambers were assembled and filled with phosphate buffered saline. The cambers were placed on the thermo-jacketed stand to pre-warm the chambers to the 37° C.
Bovine eyes were obtained from the local abattoir and placed to the cold Ringer's solution containing 120 mM NaCl, 5 mM KCl, 23 mM NaHCO3, 1 mM MgCl2, 1.8 mM CaCl2, 2.0 mM taurine, and 10 mM glucose pH 7.4. Eyes were transferred to the lab within 2-3 hours after enucleation and rinsed repeatedly in Ringer's solution. Excessive muscle and connective tissue were trimmed at room temperature. The enucleated eye was dissected at pars plana, and the anterior portion was discarded along with the vitreous. If sensory retina detached during the removal of vitreous, the eye was considered unusable and was discarded. After the removal of vitreous, the posterior portion of the eye with the attached neuroretina was visually examined to locate the area not containing large blood vessels in the sclera. Using a size 13 brass cork bore, the selected area was punched through using a hammer.
The resulting tissue “button” was placed in a Petri dish containing Ringer's solution. The neuroretina was carefully peeled off and discarded. The flat circular sheet of the RPE-choroid tissue was carefully removed with forceps, placed on the flat spoon and transported to the Petri dish where the “basal” round window of the Ussing-type chamber (containing metal mesh) was placed and covered with Ringer's solution. The choroid-RPE circular sheet was placed on the metal mesh of the“basal” window with choroid side down. The RPE side of the RPE-choroid sheet was covered with the nylon mesh shown, followed by clipping with the “apical” portion of the Ussing-type chamber window.
The pre-warmed Ussing-like chambers were removed from the thermo-jacketed stand, freed from the PBS solution, and disassembled. […]
Pre-warmed Ringer's solution was added first to the apical side and then to the basal side of the chamber. The temperature within the chambers was checked and if it reached 35° C., the electrical resistance was measured using the modified electrode and the DVC-1000 Voltage/Current Clamp instrument (WPI, Inc.). […]

glial cell = conditions: central nervous system; reported; cited from earlier work

CCC[C@]12CCC(=O)C=C1c1c(cc(OCC(=O)O)c(Cl)c1Cl)C2 [DPOFA, [(R)-(+)-(5,6-dichloro 2,3,9,9a-tetrahydro 3-oxo-9a-propyl-1H-fluoren-7-yl)oxy]acetic acid]
stimulation of water transport across the bovine RPE-choroid complex ([1]; ex vivo, apical to basal side, overall result): stimulated water transport
water transport at 6 μM compared with the higher concentrations ([1]; first experiment, FIG. 1, 6 μM vs 20 μM and 60 μM): more significant transport of water than 20 μM and 60 μM
transport of water from apical to basal side (upward shift of basal capillary meniscus) ([1]; first experiment, FIG. 1, 6 μM, 20 μM, 60 μM DPOFA): stimulated significant increase in transport of water
movement of water from apical to basal side ([1]; second experiment, FIG. 2, 6 μM, 20 μM, 60 μM DPOFA): increased the movement of water
concentration giving the strongest stimulation of water transport ([1]; second experiment, FIG. 2, 6, 20, 60 μM tested): 6 µM
inhibition of glial cell swelling and reactive gliosis (glial cell): effective inhibitor of glial cell swelling and reactive gliosis
